Reference: US20110052534A1, “Imidazopyridazine Compounds for Treating Viral Infections” (priority 2009, published 2011)
Where a name gives a salt, the structure may show the parent alone. Read-outs that look alike come from different tables or passages of the source.

Tests used:
[1] = test system: HCV genotype 1a H77 NS3-5B bicistronic subgenomic replicon; assay: microbe, parasite or virus in culture; assay type: cell-based; conditions: Hepatitis C virus
Text: (§1) Two cell lines were used for screening of compounds for inhibiting HCV RNA replication (genoytype 1a and 1b). Genotype la replicon cells, are a Huh-7 derived cell line bearing the genotype 1a H77NS3-5B bicistronic subgenomic replicon. See, Blight, et al., J. Virol. (2003) 77(5): 3181-3190.
(§2) The genotype 1a replicon contains several adaptive mutations (NS4B Q31H, NS5A K68R, NS5A S232I), the luciferase gene and encodes for neomycin resistance. The genotype 1b replicon, also referred to as the ET replicon, is stably transfected with RNA transcripts harboring a I389luc-ubi-neo/NS3-3′/ET replicon with firefly luciferase-ubiquitin-neomycin phosphotransferase fusion protein and EMCV-IRES driven NS3-5B polyprotein containing the cell culture adaptive mutations (E1202G; T12801; K1846T) See, Kreiger, et al., Journal of Virology 75:4614-4624 (2001). Both cell lines were grown in DMEM, supplemented with 10% fetal calf serum, 2 mM Glutamine, Penicillin (100 IU/mL)/Streptomycin (100 μg/mL), 1×nonessential amino acids, and 250 μg/mL G418 (“Geneticin”). They were all available through Life Technologies (Bethesda, Md.). The cells were plated at 0.5×10^4 cells/well in 384 well plates containing compounds. The final concentration of compounds ranged between 0.1 nM to 50 μM and the final DMSO concentration of 0.5%.
(§3) Luciferase activity was measured 48 hours later by adding a Steady glo (Promega, Madison, Wis.). Percent inhibition of replication data was plotted relative to no compound control. Under the same condition, cytotoxicity of the compounds was determined using cell titer glo (Promega, Madison, Wis.). EC50 values were determined from a 10 point dose response curve using 2-4 fold serial dilutions for each compound, which spans a concentration range of at least a 1000 fold. Replicon EC50 values, the concentration of compound required to inhibit 50% of the assay response, were calculated by curve fitting data to the Hill equation, using a non-linear least-squares curve-fitting program. The software tested the data for quality and rejected compounds with high and low activity before fitting the equation below.
(§4) Analysis was performed using an XC50 module and BioAssay Enterprise (Cambridge Soft).

[2] = test system: HCV genotype 1b replicon (ET replicon); assay: microbe, parasite or virus in culture; assay type: cell-based; conditions: Hepatitis C virus
Text: as §1, §2, §3, §4

[3] = Table 2, luciferase activity after 48 hours, read-out: HCV Genotype 1A Replicon EC50
[4] = Table 2, luciferase activity after 48 hours, read-out: HCV Genotype 1B Replicon EC50

| Structure (SMILES) | EC50 [1, 3] [nM] | EC50 [2, 4] [nM] | other results |
| --- | --- | --- | --- |
| CCCOc1ccc(-c2cc(C(C(=O)OCCOCCOCCOCCO)n3cc4nc(-c5cccc(F)c5F)nc-4cn3)on2)c(C(F)(F)F)c1 (stereo not drawn) [Compound 12, 2-{[2-({2-[(2-Hydroxyethyl)oxy]ethyl}oxy)ethyl]oxy}ethyl [2-(2,3-difluorophenyl)-5H-imidazo[4,5-d]pyridazin-5-yl]{3-[4-(propyloxy)-2-(trifluoromethyl)phenyl]-5-isoxazolyl}acetate] | 17 | 1 | – |
| CCCOc1ccc(-c2cc(C(C(=O)OC)n3cc4nc(-c5cccc(F)c5F)nc-4cn3)on2)c(C(F)(F)F)c1 (stereo not drawn) [Compound 1, Methyl [2-(2,3-difluorophenyl)-5H-imidazo[4,5-d]pyridazin-5-yl]{3-[4-(propyloxy)-2-(trifluoromethyl)phenyl]-5-isoxazolyl}acetate] | 17 | 3 | – |
| CCCOc1ccc(-c2cc(C(C(=O)OCCC(=O)O)n3cc4nc(-c5cccc(F)c5F)nc-4cn3)on2)c(C(F)(F)F)c1 (stereo not drawn) [Compound 16, 3-[([2-(2,3-Difluorophenyl)-5H-imidazo[4,5-d]pyridazin-5-yl]{3-[4-(propyloxy)-2-(trifluoromethyl)phenyl]-5-isoxazolyl}acetyl)oxy]propanoic acid sodium salt] | 32 | 3 | – |
| CCCOc1ccc(-c2cc(C(C(=O)OCCCO)n3cc4nc(-c5cccc(F)c5F)nc-4cn3)on2)c(C(F)(F)F)c1 (stereo not drawn) [Compound 5, 3-Hydroxypropyl [2-(2,3-difluorophenyl)-5H-imidazo[4,5-d]pyridazin-5-yl]{3-[4-(propyloxy)-2-(trifluoromethyl)phenyl]-5-isoxazolyl}acetate] | 24 | 6 | – |
| CCCOc1ccc(-c2cc(C(C(=O)OCCOCCO)n3cc4nc(-c5cccc(F)c5F)nc-4cn3)on2)c(C(F)(F)F)c1 (stereo not drawn) [Compound 8, 2-[(2-Hydroxyethyl)oxy]ethyl [2-(2,3-difluorophenyl)-5H-imidazo[4,5-d]pyridazin-5-yl]{3-[4-(propyloxy)-2-(trifluoromethyl)phenyl]-5-isoxazolyl}acetate] | 7 | 3 | – |
| CCCOc1ccc(-c2cc(C(C(=O)OCC)n3cc4nc(-c5cccc(F)c5F)nc-4cn3)on2)c(C(F)(F)F)c1 (stereo not drawn) [Compound 2, Ethyl [2-(2,3-difluorophenyl)-5H-imidazo[4,5-d]pyridazin-5-yl]{3-[4-(propyloxy)-2-(trifluoromethyl)phenyl]-5-isoxazolyl}acetate] | 12 | 4 | – |
| CCCOC(=O)C(c1cc(-c2ccc(OCCC)cc2C(F)(F)F)no1)n1cc2nc(-c3cccc(F)c3F)nc-2cn1 (stereo not drawn) [Compound 3, Propyl [2-(2,3-difluorophenyl)-5H-imidazo[4,5-d]pyridazin-5-yl]{3-[4-(propyloxy)-2-(trifluoromethyl)phenyl]-5-isoxazolyl}acetate] | 20 | 5 | – |
| CCCOc1ccc(-c2ccc(C(C(=O)OCC)n3cc4nc(-c5cccc(F)c5F)nc-4cn3)cn2)c(C(F)(F)F)c1 (stereo not drawn) [Compound 40, Ethyl [2-(2,3-difluorophenyl)-5H-imidazo[4,5-d]pyridazin-5-yl]{6-[4-(propyloxy)-2-(trifluoromethyl)phenyl]-3-pyridinyl}acetate] | – | 440 | – |
| CCCOc1ccc(-c2ccc(C(C(=O)OC(C)C)n3cc4nc(-c5cccc(F)c5F)nc-4cn3)cn2)c(C(F)(F)F)c1 (stereo not drawn) [Compound 42, 1-Methylethyl [2-(2,3-difluorophenyl)-5H-imidazo[4,5-d]pyridazin-5-yl]{6-[4-(propyloxy)-2-(trifluoromethyl)phenyl]-3-pyridinyl}acetate] | 980 | 510 | – |
| CCCOc1ccc(-c2cc(C(C(=O)OCCOCCOCCO)n3cc4nc(-c5cccc(F)c5F)nc-4cn3)on2)c(C(F)(F)F)c1 (stereo not drawn) [Compound 11, 2-({2-[(2-Hydroxyethyl)oxy]ethyl}oxy)ethyl [2-(2,3-difluorophenyl)-5H-imidazo[4,5-d]pyridazin-5-yl]{3-[4-(propyloxy)-2-(trifluoromethyl)phenyl]-5-isoxazolyl}acetate] | 21 | 3 | – |
| CCCCOC(=O)C(c1cc(-c2ccc(OCCC)cc2C(F)(F)F)no1)n1cc2nc(-c3cccc(F)c3F)nc-2cn1 (stereo not drawn) [Compound 7, Butyl [2-(2,3-difluorophenyl)-5H-imidazo[4,5-d]pyridazin-5-yl]{3-[4-(propyloxy)-2-(trifluoromethyl)phenyl]-5-isoxazolyl}acetate] | 11 | 5 | – |
| CCCOc1ccc(-c2cc(C(C(=O)OC(C)C)n3cc4nc(-c5cccc(F)c5F)nc-4cn3)on2)c(C(F)(F)F)c1 (stereo not drawn) [Compound 4, 1-Methylethyl [2-(2,3-difluorophenyl)-5H-imidazo[4,5-d]pyridazin-5-yl]{3-[4-(propyloxy)-2-(trifluoromethyl)phenyl]-5-isoxazolyl}acetate] | 30 | 10 | – |
| CC(CO)(CO)COC(=O)C(c1cc(-c2ccc(C3CC3)cc2C(F)(F)F)no1)n1cc2nc(-c3cccc(F)c3F)nc-2cn1 (stereo not drawn) [Compound 180, 3-hydroxy-2-(hydroxymethyl)-2-methylpropyl {3-[4-cyclopropyl-2-(trifluoromethyl)phenyl]-5-isoxazolyl}[2-(2,3-difluorophenyl)-5H-imidazo[4,5-d]pyridazin-5-yl]acetate] | – | – | EC50 ([1]; Table 3, luciferase activity after 48 hours, read-out: HCV Genotype 1A Replicon EC50): 79 nM; EC50 ([2]; Table 3, luciferase activity after 48 hours, read-out: HCV Genotype 1B Replicon EC50): 8 nM |
| CCCOc1ccc(-c2cc(C(C(=O)OCCCOP(=O)(O)O)n3cc4nc(-c5cccc(F)c5F)nc-4cn3)on2)c(C(F)(F)F)c1 (stereo not drawn) [Compound 14, 3-(Phosphonooxy)propyl [2-(2,3-difluorophenyl)-5H-imidazo[4,5-d]pyridazin-5-yl]{3-[4-(propyloxy)-2-(trifluoromethyl)phenyl]-5-isoxazolyl}acetate mono sodium salt] | – | – | EC50 ([1]; 48 h, read-out: HCV Genotype 1A Replicon EC50 (nM)): 42 nM; EC50 ([2]; 48 h, read-out: HCV Genotype 1B Replicon EC50 (nM)): 3 nM |
| CCCOc1ccc(-c2cc(C(C(=O)NC)n3cc4nc(-c5cccc(F)c5F)nc-4cn3)on2)c(C(F)(F)F)c1 (stereo not drawn) [Compound 20, 2-[2-(2,3-Difluorophenyl)-5H-imidazo[4,5-d]pyridazin-5-yl]-N-methyl-2-{3-[4-(propyloxy)-2-(trifluoromethyl)phenyl]-5-isoxazolyl}acetamide] | 920 | 65 | – |
| CCCOc1ccc(-c2cc(C(C(=O)OC(C)(C)C)n3cc4nc(-c5cccc(F)c5F)nc-4cn3)on2)c(C(F)(F)F)c1 (stereo not drawn) [Compound 6, 1,1-Dimethylethyl [2-(2,3-difluorophenyl)-5H-imidazo[4,5-d]pyridazin-5-yl]{3-[4-(propyloxy)-2-(trifluoromethyl)phenyl]-5-isoxazolyl}acetate] | 65 | 16 | – |
| CCCOc1ccc(-c2ccc(C(C(=O)OC)n3cc4nc(-c5cccc(F)c5F)nc-4cn3)cn2)c(C(F)(F)F)c1 (stereo not drawn) [Compound 39, Methyl [2-(2,3-difluorophenyl)-5H-imidazo[4,5-d]pyridazin-5-yl]{6-[4-(propyloxy)-2-(trifluoromethyl)phenyl]-3-pyridinyl}acetate] | 9440 | 800 | – |
| CCCOc1ccc(-c2cc(C(C(=O)OCCCCN(C)C)n3cc4nc(-c5cccc(F)c5F)nc-4cn3)on2)c(C(F)(F)F)c1 (stereo not drawn) [Compound 173, 4-(Dimethylamino)butyl [2-(2,3-difluorophenyl)-5H-imidazo[4,5-d]pyridazin-5-yl]{3-[4-(propyloxy)-2-(trifluoromethyl)phenyl]-5-isoxazolyl}acetate dihydrochloride] | 20 | 3 | – |
| CCCOc1ccc(-c2cc(C(C(=O)OCCOCCOC)n3cc4nc(-c5cccc(F)c5F)nc-4cn3)on2)c(C(F)(F)F)c1 (stereo not drawn) [Compound 9, 2-{[2-(Methyloxy)ethyl]oxy}ethyl [2-(2,3-difluorophenyl)-5H-imidazo[4,5-d]pyridazin-5-yl]{3-[4-(propyloxy)-2-(trifluoromethyl)phenyl]-5-isoxazolyl}acetate] | 2 | 4 | – |
| CCCOC(=O)C(c1ccc(-c2ccc(OCCC)cc2C(F)(F)F)nc1)n1cc2nc(-c3cccc(F)c3F)nc-2cn1 (stereo not drawn) [Compound 41, Propyl [2-(2,3-difluorophenyl)-5H-imidazo[4,5-d]pyridazin-5-yl]{6-[4-(propyloxy)-2-(trifluoromethyl)phenyl]-3-pyridinyl}acetate] | 900 | 2700 | – |
